In patent publication US11999728B2, “Estrogen receptor modulators” (Recurium IP Holdings, LLC, priority 2020, dated 2024) one finds IC50 data, which are given here for 23 compounds.

The IC50 is the midpoint of a concentration-inhibition curve.

This test deals with MCF7. Description: Breast Cancer Cell Proliferation Assay (MCF-7), Cell Titer-Glo. The class given is cell-based. The conditions noted are these: Homo sapiens, MCF7 cells, 5 days of compound exposure. Here is the method:
Breast Cancer Cell Proliferation Assay (MCF-7)
MCF7 was expanded and maintained in the medium (Phenol red free DMEM/F12 (Hyclone SH30272.01) NEAA (Gibco11140-050) Na-pyruvate (Gibco 11360-070) and Re-stripped Charcoal stripped FBS (Gemini 100-119)). The cells were adjusted to a concentration of 3,000 cells per mL in the above media, and the cells were incubated (37° C., 5% CO2). The following day a 10-point, serial dilution of compounds was added to the cells at a final concentration ranging from 10-0.000005 μM for test compounds (17β-estradiol was used as a control). Additional cells were plated in 30 wells to serve as the day 1 (pretreatment) comparison. After 5 days of compound exposure, Cell Titer-Glo reagent was added to the cells and the relative luminescence units (RLUs) of each well was determined. Cell Titer-Glo was also added to 32 μL of medium without cells to obtain a background value. The plates were allowed to incubate at room temperature for 10 minutes to stabilize luminescent signal and the luminescence signal was recorded with EnSpire. The relative increase in cell number of each sample is determined as follows: (RLU sample-RLU background/RLU estrogen only treated cells-RLU background)×100=% inhibition.
In general terms: Cellular ATP, detected with luciferase, serves as a proxy for viable cell number.

On to `C[C@@H]1Cc2c([nH]c3ccccc23)[C@@H](c2ccc(NC3CN(CCC#N)C3)cn2)N1C12CC(C1)C2` [Compound 4, 3-(3-((6-((1S,3R)-2-(bicyclo[1.1.1]pentan-1-yl)-3-methyl-2,3,4,9-tetrahydro-1H-pyrido[3,4-b]indol-1-yl)pyridin-3-yl)amino)azetidin-1-yl)propanenitrile], for which, under “120 h”, the IC50 is 25 to 250 nM. Regarding `C[C@@H]1Cc2c([nH]c3ccccc23)[C@@H](c2c(F)cc(O[C@H]3CCN(CCCF)C3)cc2F)N1C12CC(C#N)(C1)C2` (single isomer, unassigned) [Compound 36], for the setting “MCF7, 120 h”, the IC50 was at least 250 nM. `CCCCN1C[C@@H](F)[C@H](Nc2ccc([C@@H]3c4[nH]c5ccccc5c4C[C@@H](C)N3C34CC(C3)C4)cc2)C1` [Compound 84, (3R,4R)—N-(4-((1R,3R)-2-(bicyclo[1.1.1]pentan-1-yl)-3-methyl-2,3,4,9-tetrahydro-1H-pyrido[3,4-b]indol-1-yl)phenyl)-1-butyl-4-fluoropyrrolidin-3-amine] gave an IC50 (MCF7, 120 h) of at most 25 nM. Same read-out and setting: for `C[C@@H]1Cc2c([nH]c3ccccc23)[C@@H](c2ccc(OC3CN(C4CC4)C3)cc2)N1C12CC(C1)C2` [Compound 47, (1R,3R)-2-(bicyclo[1.1.1]pentan-1-yl)-1-(4-((1-cyclopropylazetidin-3-yl)oxy)phenyl)-3-methyl-2,3,4,9-tetrahydro-1H-pyrido[3,4-b]indole] the value was at most 25 nM; for `C[C@@H]1Cc2c([nH]c3ccccc23)[C@@H](c2ccc(NC3CN(CC(C)(F)F)C3)cc2)N1C12CC(C1)C2` [Compound 88, N-(4-((1R,3R)-2-(bicyclo[1.1.1]pentan-1-yl)-3-methyl-2,3,4,9-tetrahydro-1H-pyrido[3,4-b]indol-1-yl)phenyl)-1-(2,2-difluoropropyl)azetidin-3-amine], 25 to 250 nM. Still for that read-out and setting: for `C[C@H]1Cc2c([nH]c3ccccc23)[C@H](c2c(F)cc(NC3CN(CCCF)C3)cc2F)N1C12CC(C(N)=O)(C1)C2` (single isomer, unassigned) [Compound 77] the value was at least 250 nM; for `C[C@@H]1Cc2c([nH]c3ccccc23)[C@@H](c2ccc(OCCN3CC(CF)C3)cc2F)N1C12CC(C1)C2` [Compound 25, (1R,3R)-2-(bicyclo[1.1.1]pentan-1-yl)-1-(2-fluoro-4-(2-(3-(fluoromethyl)azetidin-1-yl)ethoxy)phenyl)-3-methyl-2,3,4,9-tetrahydro-1H-pyrido[3,4-b]indole], at most 25 nM; for `C[C@@H]1Cc2c([nH]c3ccccc23)[C@@H](c2ccc(OCCN3CC(CF)C3)cc2)N1C12CC(C1)C2` [Compound 24, (1R,3R)-2-(bicyclo[1.1.1]pentan-1-yl)-1-(4-(2-(3-(fluoromethyl)azetidin-1-yl)ethoxy)phenyl)-3-methyl-2,3,4,9-tetrahydro-1H-pyrido[3,4-b]indole], at most 25 nM. Under “MCF7, 120 h”, `CCCN1C[C@H](F)[C@H](Nc2ccc([C@@H]3c4[nH]c5ccccc5c4C[C@@H](C)N3C34CC(C3)C4)cc2)C1` (single isomer, unassigned) [Compound 85] registered an IC50 of at most 25 nM. On the same count and under the same terms, next, `C[C@@H]1Cc2c([nH]c3ccccc23)[C@@H](c2c(F)cc(NC3CN(CCCF)C3)cc2F)N1C12CC(CO)(C1)C2` (single isomer, unassigned) [Compound 18]: at most 25 nM.

`C[C@@H]1Cc2c([nH]c3ccccc23)[C@@H](c2ncc(OC3CN(CCCF)C3)cn2)N1C12CC(C1)C2` [Compound 61, (1S,3R)-2-(bicyclo[1.1.1]pentan-1-yl)-1-(5-((1-(3-fluoropropyl)azetidin-3-yl)oxy)pyrimidin-2-yl)-3-methyl-2,3,4,9-tetrahydro-1H-pyrido[3,4-b]indole]: for the setting “MCF7, 120 h”, the IC50 is at least 250 nM. Consider `C[C@H](F)CN1CC(Nc2ccc([C@@H]3c4[nH]c5ccccc5c4C[C@@H](C)N3C34CC(C3)C4)cc2)C1` (single isomer, unassigned) [Compound 83], for which, where the note is “MCF7, 120 h”, the IC50 was at most 25 nM.

For the setting “MCF7, 120 h”, `C[C@H]1Cc2c([nH]c3ccccc23)[C@H](c2c(F)cc(NC3CN(CCCF)C3)cc2F)N1C12CC(CO)(C1)C2` (single isomer, unassigned) [Compound 17] registered an IC50 of at least 250 nM. Still for that read-out and setting: for `C[C@@H]1Cc2c([nH]c3ccccc23)[C@@H](c2ncc(OC3CN(CCCF)C3)cc2F)N1C12CC(C1)C2` [Compound 14, (1S,3R)-2-(bicyclo[1.1.1]pentan-1-yl)-1-(3-fluoro-5-((1-(3-fluoropropyl)azetidin-3-yl)oxy)pyridin-2-yl)-3-methyl-2,3,4,9-tetrahydro-1H-pyrido[3,4-b]indole] the value was at most 25 nM; for `C[C@@H]1Cc2c([nH]c3ccccc23)[C@@H](c2ccc(N[C@@H]3CN(CCCF)C[C@@H]3F)cc2)N1C12CC(C1)C2` (single isomer, unassigned) [Compound 73], at most 25 nM; for `C[C@@H]1Cc2c([nH]c3ccccc23)[C@@H](c2ncc(NC3CN(CCCF)C3)cn2)N1C12CC(C1)C2` [Compound 60, 2-((1S,3R)-2-(bicyclo[1.1.1]pentan-1-yl)-3-methyl-2,3,4,9-tetrahydro-1H-pyrido[3,4-b]indol-1-yl)-N-(1-(3-fluoropropyl)azetidin-3-yl)pyrimidin-5-amine], at least 250 nM. `C[C@@H]1Cc2c([nH]c3ccccc23)[C@@H](c2ccc(OC3CN(CCCF)C3)cc2)N1C12CC(C1)C2` [Compound 38, (1R,3R)-2-(bicyclo[1.1.1]pentan-1-yl)-1-(4-((1-(3-fluoropropyl)azetidin-3-yl)oxy)phenyl)-3-methyl-2,3,4,9-tetrahydro-1H-pyrido[3,4-b]indole]: the IC50 (MCF7, 120 h) was at most 25 nM.

Take `C[C@H]1Cc2c([nH]c3ccccc23)[C@H](c2c(F)cc(O[C@H]3CCN(CCCF)C3)cc2F)N1C12CC(C#N)(C1)C2` (single isomer, unassigned) [Compound 90]: the IC50 (MCF7, 120 h) was at least 250 nM. Same read-out and setting: for `C[C@@H]1Cc2c([nH]c3ccccc23)[C@@H](c2ccc(OC3CN(CCO)C3)cc2)N1C12CC(C1)C2` [Compound 46, 2-(3-(4-((1R,3R)-2-(bicyclo[1.1.1]pentan-1-yl)-3-methyl-2,3,4,9-tetrahydro-1H-pyrido[3,4-b]indol-1-yl)phenoxy)azetidin-1-yl)ethan-1-ol] the value was at least 250 nM. The same measure, in the same setting: for `C[C@@H]1Cc2c([nH]c3ccccc23)[C@@H](c2ccc(N[C@@H]3CN(CCCF)C[C@@H]3O)cc2)N1C12CC(C1)C2` [Compound 78, (3S,4R)-4-((4-((1R,3R)-2-(bicyclo[1.1.1]pentan-1-yl)-3-methyl-2,3,4,9-tetrahydro-1H-pyrido[3,4-b]indol-1-yl)phenyl)amino)-1-(3-fluoropropyl)pyrrolidin-3-ol] the value was at most 25 nM; for `C[C@@H]1Cc2c([nH]c3ccccc23)[C@@H](c2c(F)cc(O[C@@H]3CCN(CCCF)C3)cc2F)N1C12CC(C(N)=O)(C1)C2` (single isomer, unassigned) [Compound 34], 25 to 250 nM. Compound `C[C@@H]1Cc2c([nH]c3ccccc23)[C@@H](c2ccc(O[C@H]3CCN(CCCF)C3)cc2)N1C12CC(C1)C2` (single isomer, unassigned) [Compound 8] returned an IC50 (MCF7, 120 h) of at most 25 nM. Under “MCF7, 120 h”, `CCCN1C[C@@H](F)[C@@H](Nc2ccc([C@@H]3c4[nH]c5ccccc5c4C[C@@H](C)N3C34CC(C3)C4)cc2)C1` (single isomer, unassigned) [Compound 86] gave an IC50 of 25 to 250 nM.
